Test results reported in patent US20130040306A1, “BACKSCATTERING INTERFEROMETRIC ANALYSIS OF MEMBRANE MATERIALS” (priority 2011, published 2013).
“Also recorded” adds a separate entry of the source.

Experiments:
PLD1c.d311 [1] = biological target: T1, PLD1c.d311 (Homo sapiens, UniProt Q13393); test: BSI small molecule binding to purified PLD1c.d311 in the absence of lipid; details: for direct binding to purified PLD1c.d311 by BSI: absence of lipid
T1 construct: an amino-terminally-truncated and catalytically active construct; made in house; host or cells: SF21 insect cells
T1 sequence (Q13393 312-1074 limits assumed): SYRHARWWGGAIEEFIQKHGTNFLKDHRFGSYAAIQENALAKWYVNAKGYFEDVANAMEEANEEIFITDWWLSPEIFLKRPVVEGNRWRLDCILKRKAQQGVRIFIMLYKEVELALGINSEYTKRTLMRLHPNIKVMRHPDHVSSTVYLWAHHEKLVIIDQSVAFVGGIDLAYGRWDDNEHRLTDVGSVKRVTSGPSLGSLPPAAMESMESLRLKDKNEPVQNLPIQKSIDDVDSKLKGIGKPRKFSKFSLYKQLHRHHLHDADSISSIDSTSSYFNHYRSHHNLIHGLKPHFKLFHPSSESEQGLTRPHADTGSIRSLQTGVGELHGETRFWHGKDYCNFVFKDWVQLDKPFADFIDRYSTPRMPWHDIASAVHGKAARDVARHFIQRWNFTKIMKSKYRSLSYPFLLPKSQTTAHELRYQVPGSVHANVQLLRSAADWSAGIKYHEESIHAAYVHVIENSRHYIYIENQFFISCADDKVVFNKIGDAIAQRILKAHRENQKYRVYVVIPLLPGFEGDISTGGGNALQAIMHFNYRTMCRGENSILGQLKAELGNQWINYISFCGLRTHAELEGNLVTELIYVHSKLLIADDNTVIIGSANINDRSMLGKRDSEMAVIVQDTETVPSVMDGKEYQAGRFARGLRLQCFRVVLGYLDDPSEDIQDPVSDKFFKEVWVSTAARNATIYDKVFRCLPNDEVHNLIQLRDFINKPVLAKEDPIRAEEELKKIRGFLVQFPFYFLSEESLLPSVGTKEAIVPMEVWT
Source text: Protein constructs that are composed of different domains of the enzyme are thus used to determine the approximate site of small molecule interaction. The bulk of the studies performed thus far use human PLD1c.d311, an amino-terminally-truncated and catalytically active construct that has robust expression in SF21 insect cells, and can be purified to homogeneity over a single affinity chromatography step. This construct does retain a small portion of the pleckstrin homology domain that is necessary for catalytic activity of the enzyme (reason for this is unknown).
Binding studies are performed using backscattering interferometry (BSI), which can be performed on an efficient nanoscale level with a picomolar limit of detection, and can be used to measure Ki and Ks values for inhibitor-treated purified protein.
(§1) For the backscattering interferometry experiments, large-unilamellar lipid vesicles are generated via extrusion for use in interfacial kinetic studies. The composition generally includes 86% mol neutral diluent (36:2 PE or 36:2 PG), 5% mol PI(4,5)P2, and 8% mol 32:0 PC. Following extrusion, bulk lipid concentration is confirmed via quantitative LC/MS. A HeNe laser beam is then directed at a sample in the channel of a microfluidic chip, resulting in an interference fringe pattern that is detected by the CCD camera. This fringe pattern shifts spatially as the refractive index (RI) of the sample changes; these shifts are translated into a numerical change in phase of the corresponding Fourier transformation. The absolute value of the magnitude in phase change corresponds to the change in solvation/hydration of the protein upon binding ligand, and can be used to plot a ligand binding curve. This inventive BSI technique can also accurately and reproducibly measure protein-lipid binding. This technique measures small shifts in RI phase (limit of sensitivity is picomolar) and requires only nanomolar concentrations of protein and ligand in a 1 μl volume channel.

PLD1.d311 = biological target: T2, PLD1.d311 (Homo sapiens, UniProt Q13393); test: in vitro PLD activity assay (release of tritiated choline headgroup, lipid vesicles); format: biochemical; details: for IC50: in vitro PLD activity assay
T2 construct: an amino-terminally-truncated and catalytically active construct; made in house; host or cells: SF21 insect cells
T2 sequence (Q13393 312-1074 limits assumed): T1 sequence (Q13393 312-1074 limits assumed)
Procedure: In vitro activity assays can be performed to measure changes in Km, and Vmax due to small molecule inhibition. This reconstitution assay uses large unilamellar vesicles (generated by extrusion of defined % mol amounts of purified lipid species) incubated with purified PLD and measures the release of a tritiated choline headgroup as a readout of catalytic activity.
Concentration response curves were generated in a radioisotopically labelled activity assay for three VU-series compounds and tungstate with N-myr-Arf1 activated PLD1.d311. Ki measurements of these inhibitors were obtained using BSI.

[2] = preliminary DMPK plasma protein studies; format: in vitro ADME
albumin [3] = biological target: T3, albumin (Homo sapiens, UniProt P02768); test: BSI lipid binding (Ks) with albumin after small molecule treatment; details: small molecule treatment vs vehicle
Source text: as §1, with “This inventive BSI technique can also accurately and reproducibly measure protein-lipid binding. This technique measures small shifts in RI phase (limit of sensitivity is picomolar) and requires only nanomolar concentrations of protein and ligand in a 1 μl volume channel.” left out
(§2) BSI can also be used to measure changes in lipid binding affinities due to small molecule treatment. BSI-derived values can be compared to Ks values determined using classic biochemical methods.
(§3) BSI was used to measure Kd of two VU-series compounds for albumin in the absence of lipid. […] As another control to confirm that vesicle composition is not disrupted due to small molecule treatment, Kd and Ks are measured for PLCδ1, which binds PIP2 at both its PH and catalytic domains.

PLCδ1 [4] = biological target: T4, PLCδ1 (Homo sapiens, UniProt P51178); test: BSI small molecule binding (Kd) to PLCδ1 control; details: control protein
T4 sequence (P51178 1-756): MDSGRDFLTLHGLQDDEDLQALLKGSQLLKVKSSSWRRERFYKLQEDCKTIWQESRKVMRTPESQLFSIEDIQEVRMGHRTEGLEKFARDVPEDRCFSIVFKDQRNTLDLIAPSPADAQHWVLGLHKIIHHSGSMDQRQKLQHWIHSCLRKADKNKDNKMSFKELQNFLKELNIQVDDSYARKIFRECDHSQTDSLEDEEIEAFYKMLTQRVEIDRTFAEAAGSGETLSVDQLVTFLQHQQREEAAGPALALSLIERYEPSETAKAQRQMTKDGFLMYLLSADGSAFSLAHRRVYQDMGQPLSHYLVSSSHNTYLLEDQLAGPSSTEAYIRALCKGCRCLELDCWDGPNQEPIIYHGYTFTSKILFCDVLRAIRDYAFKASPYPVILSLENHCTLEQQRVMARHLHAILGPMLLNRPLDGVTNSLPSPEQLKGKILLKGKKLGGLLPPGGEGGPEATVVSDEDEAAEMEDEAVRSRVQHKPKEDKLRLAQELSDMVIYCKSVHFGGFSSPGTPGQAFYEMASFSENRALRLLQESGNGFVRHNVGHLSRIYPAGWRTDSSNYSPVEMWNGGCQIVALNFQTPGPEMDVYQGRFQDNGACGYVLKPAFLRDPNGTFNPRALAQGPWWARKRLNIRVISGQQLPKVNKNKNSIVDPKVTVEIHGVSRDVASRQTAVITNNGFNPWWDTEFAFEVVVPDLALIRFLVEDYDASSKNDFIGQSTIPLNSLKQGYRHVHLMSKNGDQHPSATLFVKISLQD
Source text: as §1, with “This technique measures small shifts in RI phase (limit of sensitivity is picomolar) and requires only nanomolar concentrations of protein and ligand in a 1 μl volume channel.” left out
as §3

PLCδ1 [5] = biological target: T4, PLCδ1; test: BSI lipid binding (Ks) of PLCδ1 after small molecule treatment; details: small molecule treatment vs vehicle
Source text: as §1, with “This technique measures small shifts in RI phase (limit of sensitivity is picomolar) and requires only nanomolar concentrations of protein and ligand in a 1 μl volume channel.” left out
as §3

albumin [6] = biological target: T3, albumin; test: BSI small molecule binding to albumin in the absence of lipid
Source text: as §1, with “This technique measures small shifts in RI phase (limit of sensitivity is picomolar) and requires only nanomolar concentrations of protein and ligand in a 1 μl volume channel.” left out
as §3

PLD1c.d311 [7] = biological target: T1, PLD1c.d311; test: BSI interfacial lipid binding affinity (Ks) of PLD after small molecule treatment; details: small molecule treated enzyme
Source text: Eukaryotic PLD is an interfacial enzyme that, in the classic model, binds the lipid surface via interaction with PI(4,5)P2 prior to hydrolyzing substrate. […] In order to study PLD, the interfacial binding affinity must first be measured (Ks), and subsequent studies must saturate lipid binding to force application of Michaelis-Menten kinetics.
For the backscattering interferometry experiments, large-unilamellar lipid vesicles are generated via extrusion for use in interfacial kinetic studies. The composition generally includes 86% mol neutral diluent (36:2 PE or 36:2 PG), 5% mol PI(4,5)P2, and 8% mol 32:0 PC. Following extrusion, bulk lipid concentration is confirmed via quantitative LC/MS. A HeNe laser beam is then directed at a sample in the channel of a microfluidic chip, resulting in an interference fringe pattern that is detected by the CCD camera. This fringe pattern shifts spatially as the refractive index (RI) of the sample changes; these shifts are translated into a numerical change in phase of the corresponding Fourier transformation. […]
as §2

T3 sequence (P02768 25-609, species assumed): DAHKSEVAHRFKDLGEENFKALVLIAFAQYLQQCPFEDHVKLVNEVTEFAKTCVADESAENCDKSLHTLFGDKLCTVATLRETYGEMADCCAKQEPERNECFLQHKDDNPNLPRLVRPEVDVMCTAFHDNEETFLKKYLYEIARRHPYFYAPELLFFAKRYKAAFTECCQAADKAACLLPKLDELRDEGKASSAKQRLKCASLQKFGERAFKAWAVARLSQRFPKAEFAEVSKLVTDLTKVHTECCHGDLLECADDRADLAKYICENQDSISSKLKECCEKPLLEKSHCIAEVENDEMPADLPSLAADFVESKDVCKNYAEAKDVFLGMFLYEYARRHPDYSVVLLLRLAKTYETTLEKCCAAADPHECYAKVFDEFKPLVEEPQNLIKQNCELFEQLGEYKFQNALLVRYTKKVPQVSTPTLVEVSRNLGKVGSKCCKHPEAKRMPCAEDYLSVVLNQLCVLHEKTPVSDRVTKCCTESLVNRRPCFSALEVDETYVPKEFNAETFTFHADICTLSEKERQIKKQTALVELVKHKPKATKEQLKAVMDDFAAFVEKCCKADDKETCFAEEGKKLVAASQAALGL

Question: Which results are given for `[O]=[W](=[O])([O-])[O-]` [tungstate]?
Answer: Ki (BSI) compared with IC50 (activity assay) (PLD1c.d311 [1]; PLD1.d311, absence of lipid, vs IC50 with N-myr-Arf1 activated PLD1.d311): ≤ 2 fold; direct binding to purified PLD1c.d311 by BSI (PLD1c.d311 [1]): directly binds the inhibitors in the absence of lipid

Question: For `CC/C(=C(\c1ccccc1)c1ccc(OCCN(C)C)cc1)c1ccccc1` [tamoxifen], which “direct binding to purified PLD1c.d311 by BSI” value (shortened to “direct binding”) (PLD1c.d311 [1]) is on record?
Answer: does not bind

Question: And the “mechanism of PLD inhibition” value (PLD1c.d311 [1]; concluded from BSI measurements)?
Answer: indirectly inhibit PLD activity

Question: What about the “PLD inhibition in vitro (in words)” value (PLD1.d311) of the same molecule?
Answer: confirmed to be PLD inhibitors in vitro

Question: What about the IC50 (PLD1.d311) of the same molecule?
Answer: 48 µM

Question: Which plasma protein bound [2] does the source give for `C[C@@H](CN1CCC(n2c(=O)[nH]c3cc(Br)ccc32)CC1)NC(=O)[C@@H]1C[C@H]1c1ccccc1` [VU0359595] here?
Answer: 98%

Question: And the “Ks compared to vehicle (albumin control)” value (albumin [3])?
Answer: disrupted compared to vehicle

Question: And the “binding to PLCδ1 by BSI” value (PLCδ1 [4])?
Answer: does not bind

Question: What about the “Ks of PLCδ1 compared to vehicle” value (PLCδ1 [5]) of the same molecule?
Answer: does not show shifted Ks

Question: And the “binding to albumin by BSI” value (albumin [6])?
Answer: bind albumin

Question: For `O=C(c1ccc(OCCN2CCCCC2)cc1)c1c(-c2ccc(O)cc2)sc2cc(O)ccc12` [raloxifene], which “direct binding” value (PLD1c.d311 [1]) is on record?
Answer: directly binds the enzyme

Question: What about the “direct binding” value (PLD1c.d311 [1]; listed as Raloxifene) of the same molecule?
Answer: directly binds the enzyme in the absence of lipid

Question: What about the “PLD inhibition in vitro (in words)” value (PLD1.d311) of the same molecule?
Answer: confirmed to be PLD inhibitors in vitro

Question: And the IC50 (PLD1.d311)?
Answer: 10 µM

Question: And the “shift of Ks (interfacial lipid binding) of PLD” value (PLD1c.d311 [7])?
Answer: shifting Ks; also recorded: shifts Ks
